Where two headings read alike, the source gives them in different places. Marks after values point to notes of the source that are not given here.
Assays:
[1] = target: T1, rCRFR1 (Rattus norvegicus, UniProt P35353); assay: cAMP stimulation / inhibition of oCRF-stimulated cAMP production in HEK-rCRFR1 cells; format: cell-based; conditions: for rCRFR1 relative in vitro potency: Table 2, oCRF alone = 1.00 (lower = stronger inhibition)
T1 construct: expressed in transfected cells; host or cells: HEK 293 cells, stably transfected (HEK-rCRFR1)
T1 sequence (P35353 24-415): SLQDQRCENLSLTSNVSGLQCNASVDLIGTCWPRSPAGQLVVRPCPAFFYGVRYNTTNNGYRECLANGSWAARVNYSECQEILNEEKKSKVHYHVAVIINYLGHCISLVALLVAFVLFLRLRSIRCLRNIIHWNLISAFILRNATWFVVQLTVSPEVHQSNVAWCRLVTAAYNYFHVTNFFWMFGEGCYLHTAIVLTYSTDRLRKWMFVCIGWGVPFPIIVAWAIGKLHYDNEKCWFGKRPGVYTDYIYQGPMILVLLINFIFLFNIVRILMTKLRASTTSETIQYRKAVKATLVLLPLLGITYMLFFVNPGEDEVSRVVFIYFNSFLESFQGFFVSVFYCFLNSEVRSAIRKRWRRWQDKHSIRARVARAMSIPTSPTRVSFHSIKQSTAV
Procedure: (§1) HEK-rCRFR1 cells or HEK-mCRFR2β cells were incubated with different CRF agonists in the presence or absence of 1 μM or 10 nM antagonist, or CRF antagonist (c=1 μM) alone. After removal of the medium, cells were lyzed with aqueous 6% trichloroacetic acid (5 min, 100° C.) (Rühmann, A., A. K. E. Köpke, F. M. Dautzenberg, and J. Spiess, Proc. Natl. Acad. Sci. USA 93: 10609-10613, 1996). The cell lysates were stored at −70° C. until assayed with a RIA kit (Amersham, Little Chalfont). […] Statistical significance was determined across groups with ANOVA, and significant differences between groups were determined by post hoc comparison using the Dunn test.
(§2) Intrinsic activities were measured at peptide concentrations generating maximal formation of cAMP in HEK-rCRFR1 or HEK-mCRFR2β cells.

[2] = target: T2, mCRFR2β (Mus musculus, UniProt Q60748); assay: Displacement of [^125I-Tyr^0]Svg from membranes of HEK-mCRFR2β cells; format: binding; conditions: for Selectivity: Kd(rCRFR1)(peptide)/Kd(rCRFR1)(astressin) × Kd(mCRFR2β)(astressin)/Kd(mCRFR2β)(peptide)
T2 construct: expressed in transfected cells; host or cells: HEK 293 cells, stably transfected (HEK-mCRFR2β); membrane homogenates
Procedure: Binding assays were performed in 96-well MultiScreen plates (Millipore, Eschborn, Germany) with GF/B filters (pore size 1.0 μm). […] After incubation (60 min, 23° C.), membrane suspension was aspirated through the plate, followed by two washes with assay buffer (0.2 ml, 23°). Radioactivity of the punched filters was measured with a 1470 WIZARD automatic gamma counter (Berthold, Hannover). […] Statistical analysis was performed with ANOVA, and significant differences between groups were determined by post hoc comparison using the Dunn test.
Membrane homogenates of human embryonic kidney (HEK) 293 cells stably transfected with cDNA coding for rat CRF receptor, type 1 (rCRFR1) or mouse CRF receptor, type 2β (mCRFR2β) were prepared according to standard protocols (see, e.g., Sambrook et al., Molecular Cloning: A Laboratory Manual, 2nd. Edition, Cold Spring Habor Laboratory Press, Cold Spring Habor, N.Y., 1989; Ausubel et al., Current Protocols in Molecular Biology, Green Publishing Associates and Wiley Interscience, NY, 1989).

[3] = target: T2, mCRFR2β; assay: cAMP stimulation / inhibition of Svg-stimulated cAMP production in HEK-mCRFR2β cells; format: cell-based; design: Emax: dose or concentration left out as unconfirmed; conditions: for mCRFR2β relative in vitro potency: Table 2, Svg alone = 1.00 (lower = stronger inhibition); for mCRFR2β relative in vitro potency / HEK-mCRFR2β cells rel. pot. (relative potency): 10 nM antagonist, cAMP production stimulated by 1 nM Svg; for HEK-mCRFR2β cells rel. pot. (relative potency): Table 4, Svg alone = 1.00
Procedure: as §1, §2
Target sequence in this assay (Q60748 1-431 isoform Q60748-2): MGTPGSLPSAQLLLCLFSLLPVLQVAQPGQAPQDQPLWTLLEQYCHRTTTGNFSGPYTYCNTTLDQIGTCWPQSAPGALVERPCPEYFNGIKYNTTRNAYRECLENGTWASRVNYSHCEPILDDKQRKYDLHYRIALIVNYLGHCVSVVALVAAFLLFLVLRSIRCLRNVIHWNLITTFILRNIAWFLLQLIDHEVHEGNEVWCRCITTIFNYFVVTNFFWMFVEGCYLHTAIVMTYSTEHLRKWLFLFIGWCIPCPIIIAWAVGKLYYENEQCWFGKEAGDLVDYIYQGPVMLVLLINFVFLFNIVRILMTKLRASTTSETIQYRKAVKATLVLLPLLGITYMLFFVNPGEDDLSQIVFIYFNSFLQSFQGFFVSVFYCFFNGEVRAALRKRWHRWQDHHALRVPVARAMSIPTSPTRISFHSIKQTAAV

[4] = 1 μM antagonist, cAMP production stimulated by 1 nM oCRF
[5] = read-out: HEK-mCRFR2β cells rel. IA (relative intrinsic activity)

Row | Molecule | rCRFR1 relative in vitro potency [1, 4] | Selectivity ([2]; Table 1) | mCRFR2β relative in vitro potency [3] | Selectivity ([2]; Table 3) | HEK-mCRFR2β cells rel. pot. (relative potency) [3] | Emax [3, 5] [%] | Emax ([3]; read-out: mCRFR2β % IA (intrinsic activity)) [%] | HEK-rCRFR1 cells rel. pot. (relative potency) ([1]; Table 4, 1 μM antagonist, cAMP production stimulated by 1 nM oCRF, oCRF alone = 1.00) | Emax ([1]; read-out: HEK-rCRFR1 cells rel. IA (relative intrinsic activity)) [%] | Kd [2] [nM]
1 | cyclo(29-32)[DPhe^11, Glu^29, Lys^32]rUcn(11-40) [compound 10] | 0.78 ± 0.10 | 1.48 | 0.89 ± 0.01 | – | – | – | – | – | – | –
2 | CC[C@H](C)[C@H](NC(=O)[C@@H](NC(=O)[C@H](CC(=O)O)NC(=O)[C@H](CC(C)C)NC(=O)[C@H](CC(C)C)NC(=O)[C@H](CC(C)C)NC(=O)[C@H](CCCNC(=N)N)NC(=O)[C@H](CC(N)=O)NC(=O)[C@H](CC(N)=O)NC(=O)[C@H](C)NC(=O)[C@H](C)NC(=O)[C@H](CCC(N)=O)NC(=O)[C@H](CCC(N)=O)NC(=O)[C@H](CCCCN)NC(=O)[C@H](CCC(=O)O)NC(=O)[C@H](CCCCN)NC(=O)[C@H](CCC(=O)O)NC(=O)[C@H](CCC(N)=O)NC(=O)[C@H](CCCCN)NC(=O)[C@H](CCC(=O)O)NC(=O)[C@@H](NC(=O)[C@H](CCC(=O)O)NC(=O)[C@@H](NC(=O)[C@H](CCSC)NC(=O)[C@H](CCCCN)NC(=O)[C@H](CCCNC(=N)N)NC(=O)[C@H](CC(C)C)NC(=O)[C@H](CC(C)C)NC(=O)[C@H](CCC(=O)O)NC(=O)[C@H](CC(C)C)NC(=O)[C@H](CO)NC(=O)[C@H](CC(C)C)NC(=O)[C@H](CC(=O)O)NC(=O)[C@@H](NC(=O)[C@H](CO)NC(=O)[C@@H](NC(=O)[C@@H]1CCCN1C(=O)[C@@H]1CCCN1C(=O)CNC(=O)[C@@H]1CCC(=O)N1)[C@@H](C)CC)[C@@H](C)CC)[C@@H](C)CC)[C@@H](C)CC)[C@@H](C)O)C(N)=O [compound 2, Svg, reference compound] | – | 0.109 | 1.00 | 0.109 | 1.00 | 100 | 100 | – | – | –
3 | CC[C@H](C)[C@H](NC(=O)[C@@H](NC(=O)[C@H](CC(=O)O)NC(=O)[C@H](CC(C)C)NC(=O)[C@H](CC(C)C)NC(=O)[C@H](CC(C)C)NC(=O)[C@H](CCCNC(=N)N)NC(=O)[C@H](CC(N)=O)NC(=O)[C@H](CC(N)=O)NC(=O)[C@H](C)NC(=O)[C@H](C)NC(=O)[C@H](CCC(N)=O)NC(=O)[C@H](CCC(N)=O)NC(=O)[C@H](CCCCN)NC(=O)[C@H](CCC(=O)O)NC(=O)[C@H](CCCCN)NC(=O)[C@H](CCC(=O)O)NC(=O)[C@H](CCC(N)=O)NC(=O)[C@H](CCCCN)NC(=O)[C@H](CCC(=O)O)NC(=O)[C@@H](NC(=O)[C@H](CCC(=O)O)NC(=O)[C@@H](NC(=O)[C@H](CCSC)NC(=O)[C@H](CCCCN)NC(=O)[C@H](CCCNC(=N)N)NC(=O)[C@H](CC(C)C)NC(=O)[C@H](CC(C)C)NC(=O)[C@H](CCC(=O)O)NC(=O)[C@@H](N)Cc1ccc(O)cc1)[C@@H](C)CC)[C@@H](C)CC)[C@@H](C)O)C(N)=O [compound 19, [Tyr^11]Svg(11-40)] | – | – | – | 32.97 | 0.67 ± 0.04 | 0.7 ± 0.2 | – | 0.82 ± 0.06 | 9 ± 1 | 20.8 ± 1.6
4 | [DPhe^12, Nle^21,38]h/rCRF(12-41) [compound 5, reference compound] | 0.33 ± 0.08^h,i | 1.84 | 0.87 ± 0.08^i | – | – | – | – | – | – | –
5 | [DLeu^11, Glu^12]rUcn(11-40) [compound 9] | 0.56 ± 0.05 | 2.29 | 0.81 ± 0.06 | – | – | – | – | – | – | –

From patent publication US6846803B1, “Antagonists specific for the corticotropin-releasing factor receptor type 2 (CRFR2)” (priority 1998, dated 2005)
